{
  "source": "patent US7226761B2",
  "about": "“Manufacture of five-carbon sugars and sugar alcohols” (Danisco Sweeteners Oy, priority 1992, dated 2007)",
  "key": {"[1]": {"tested_on": "strains H1915 and H1916", "settings": "approximately 0.5 mM H2O2, 1.5 h; both strains", "method": "Strains H1915 and H1916 were cultivated to logarithmic growth phase. The cells were collected and suspended into synthetic complete medium lacking histidine and uracil to an average density of OD600 20. Glucose was added to a final concentration of 20 g/l and a sample was taken immediately. The cells were incubated in a 30° C. shaker (250 rpm) for 2.5 h and the first sample was taken. Then H2O2 was added to a concentration of approximately 0.5 mM and incubation continued for an additional 1.5 h, when the second sample was taken. The OD600 was measured, cells were removed by centrifugation, and the growth medium samples were analyzed by HPLC (Waters device, Aminex HPX-87H Ion Exclusion Column, see example 17)."}, "[2]": {"tested_on": "TKL1 deficient strain H1764", "test": "Growth of TKL1 deficient strain on galactose plates containing D-xylulose", "format": "cell-based, Saccharomyces cerevisiae", "settings": "2% galactose plates", "experimental": "The genomic library of Z. rouxii was transformed into the TKL1 deficient strain of Saccharomyces cerevisiae (H1764, see example 12) and 10,000 independent clones were obtained. We have observed that the TKL1 deficient strain H1764 is unable to grow on 2% galactose plates containing 0.3% or higher concentrations of D-xylulose (probably due to toxic concentrations of 5-carbon sugar phosphates accumulating). The independent clones were plated with 0.5% D-xylulose (synthetic complete medium with 2% galactose, 0.5% xylulose and 3% xylose lacking leucine for selection of the library plasmid) and screened for complementation of growth on these plates."}},
  "data": [
    {"smiles": "OO", "note": "[hydrogen peroxide]", "values": [
      {"measurement": "increase of total polyol and pentose production", "setting": "[1]", "value": 2, "unit": "fold"}
    ]},
    {"smiles": "O=C(CO)[C@@H](O)[C@H](O)CO", "note": "[D-xylulose]", "values": [
      {"measurement": "D-xylulose concentration at which the strain is unable to grow", "setting": "[2]", "value": "≥ 0.3", "unit": "%"}
    ]}
  ]
}
